Measured values reported in US20220372040A1, “METTL3 MODULATORS” (Accent Therapeutics, Inc., priority 2020, published 2022).

Tests used:
Type in all cases: biochemical
METTL3/METTL14 = METTL3/METTL14 (Homo sapiens, UniProt Q86U44); assay: METTL3-14 standard enzyme assay (3H-SAM flashplate scintillation); conditions: METTL3/METTL14 2.5 nM, RNA 100 nM, 3H-SAM 100 nM, 30 min
Procedure: METTL3-14 Standard Enzyme Assay
(§1) Assays were performed in a 25 μl-volume in 384-well V-bottom polypropylene microplates (Greiner Bio-One, cat. No. 781280) at ambient temperature. Optimized 1× assay buffer was 20 mM HEPES pH 7.5, 50 mM KCl, 250 μM MgCl2, 1 mM DTT, 0.01% Tween, 0.01% BSG, 0.004 U/μl RNAseOUT (cat. No. 10777019, ThermoFisher Scientific, Waltham, Mass.). For compound screening METTL3/METTL14 (final concentration, f.c.=2.5 nM) was added using a Multidrop Combi (ThermoFisher Scientific, Waltham, Mass.) and preincubated for 5 min. Reactions were started by adding 3′ biotinylated RNA (UCUGGACUAAA-biotin) (f.c.=100 nM) and 3H-SAM (f.c.=100 nM) substrates. Reactions proceeded for 30 minutes and were quenched with excess non-radioactive SAM (f.c.=15 μM). The reactions were then transferred to streptavidin-coated flashplates and incubated for 2 hours at 25° C. Following two washing cycles with 0.1% Tween-20, the plates were sealed and read on a TopCount (PerkinElmer, Waltham, Mass.) plate-based scintillation counter. For determination of kinetic parameters, reaction times were optimized so that measurements were taken during the initial velocity phase of the reaction.

PRMT5-MEP50 = PRMT5-MEP50 (Homo sapiens, UniProt O14744); assay: PRMT5 assay (3H-SAM flashplate scintillation); conditions: PRMT5-MEP50 2.5 nM, histone H4 peptide 100 nM, 3H-SAM 250 nM, 60 min
Procedure: Assays were performed in a 25 μl-volume in 384-well V-bottom polypropylene microplates (Greiner Bio-One, cat. No. 781280) at ambient temperature. Optimized 1× assay buffer was 20 mM Tris-HCl pH 8.0, 1 mM DTT, […]. For compound screening PRMT5-MEP50 (final concentration, f.c.=2.5 nM) was added using a Multidrop Combi (ThermoFisher Scientific, Waltham, Mass.) and preincubated for 5 min. Reactions were started by adding 3′ biotinylated histone H4 peptide acetylated on serine 1 (Ac-[…]-Biotin) (f.c.=100 nM) and 3H-SAM (f.c.=250 nM) substrates. Reactions proceeded for 60 minutes and were quenched with excess non-radioactive SAM (f.c.=15 μM). The reactions were then transferred to streptavidin-coated flashplates and incubated for 2 hours at 25° C. Following two washing cycles with 0.1% Tween-20, the plates were sealed and read on a TopCount (PerkinElmer, Waltham, Mass.) plate-based scintillation counter. For determination of kinetic parameters, reaction times were optimized so that measurements were taken during the initial velocity phase of the reaction.

METTL16 = target: T1, METTL16 (Homo sapiens, UniProt Q86W50); assay: METTL16 assay (3H-SAM flashplate scintillation); conditions: METTL16 100 nM, RNA 50 nM, 3H-SAM 200 nM, SAM 800 nM, 20 min
T1 sequence (Q86W50 1-562): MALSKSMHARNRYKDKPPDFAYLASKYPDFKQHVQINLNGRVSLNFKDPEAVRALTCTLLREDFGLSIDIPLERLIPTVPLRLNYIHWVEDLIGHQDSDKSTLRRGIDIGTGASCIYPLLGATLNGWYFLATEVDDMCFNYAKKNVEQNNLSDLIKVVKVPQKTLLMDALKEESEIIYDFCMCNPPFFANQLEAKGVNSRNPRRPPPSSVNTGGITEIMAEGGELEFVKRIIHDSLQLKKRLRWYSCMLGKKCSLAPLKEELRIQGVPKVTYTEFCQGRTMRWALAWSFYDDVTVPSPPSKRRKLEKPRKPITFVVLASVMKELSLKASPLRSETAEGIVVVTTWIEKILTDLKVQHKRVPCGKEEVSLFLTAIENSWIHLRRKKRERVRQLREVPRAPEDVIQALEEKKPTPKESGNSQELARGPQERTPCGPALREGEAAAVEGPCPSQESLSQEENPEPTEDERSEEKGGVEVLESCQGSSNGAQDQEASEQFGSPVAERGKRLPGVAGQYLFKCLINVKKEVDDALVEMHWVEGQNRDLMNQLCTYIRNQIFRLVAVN
Procedure: Assays were performed in a 25 μl-volume in 384-well V-bottom polypropylene microplates (Greiner Bio-One, cat. No. 781280) at ambient temperature. Optimized 1× assay buffer was 20 mM HEPES pH 7.5, 50 mM KCl, 1 mM DTT, 0.01% Tween, 0.01% BSG, 0.004 U/μl RNAseOUT (cat. No. 10777019, ThermoFisher Scientific, Waltham, Mass.). For compound screening METTL16 (final concentration, f.c.=100 nM) was added using a Multidrop Combi (ThermoFisher Scientific, Waltham, Mass.) and preincubated for 5 min. Reactions were started by adding 3′ biotinylated RNA ([…]-biotin) (f.c.=50 nM), 3H-SAM (f.c.=200 nM) and non-radiolabeled SAM (f.c.=800 nM) substrates. Reactions proceeded for 20 minutes and were quenched with excess non-radioactive SAM (f.c.=100 μM). The reactions were then transferred to streptavidin-coated flashplates and incubated for 2 hours at 25° C. Following two washing cycles with 0.1% Tween-20, the plates were sealed and read on a TopCount (PerkinElmer, Waltham, Mass.) plate-based scintillation counter. For determination of kinetic parameters, reaction times were optimized so that measurements were taken during the initial velocity phase of the reaction.

METTL1/WDR4 = METTL1/WDR4 (Homo sapiens, UniProt Q9UBP6); assay: METTL1 assay (3H-SAM flashplate scintillation); conditions: METTL1/WDR4 6.25 nM, RNA 25 nM, 3H-SAM 60 nM, 20 min; read-out: METTL1 IC50
Procedure: as §1, with “METTL1/WDR4” for “METTL3/METTL14”, “f.c.=6.25” for “f.c.=2.5”, “([…]-biotin) (f.c.=25” for “(UCUGGACUAAA-biotin) (f.c.=100”, “(f.c.=60” for “(f.c.=100”, “20” for “30”

PRMT5-MEP50, sequence (O14744 whole entry): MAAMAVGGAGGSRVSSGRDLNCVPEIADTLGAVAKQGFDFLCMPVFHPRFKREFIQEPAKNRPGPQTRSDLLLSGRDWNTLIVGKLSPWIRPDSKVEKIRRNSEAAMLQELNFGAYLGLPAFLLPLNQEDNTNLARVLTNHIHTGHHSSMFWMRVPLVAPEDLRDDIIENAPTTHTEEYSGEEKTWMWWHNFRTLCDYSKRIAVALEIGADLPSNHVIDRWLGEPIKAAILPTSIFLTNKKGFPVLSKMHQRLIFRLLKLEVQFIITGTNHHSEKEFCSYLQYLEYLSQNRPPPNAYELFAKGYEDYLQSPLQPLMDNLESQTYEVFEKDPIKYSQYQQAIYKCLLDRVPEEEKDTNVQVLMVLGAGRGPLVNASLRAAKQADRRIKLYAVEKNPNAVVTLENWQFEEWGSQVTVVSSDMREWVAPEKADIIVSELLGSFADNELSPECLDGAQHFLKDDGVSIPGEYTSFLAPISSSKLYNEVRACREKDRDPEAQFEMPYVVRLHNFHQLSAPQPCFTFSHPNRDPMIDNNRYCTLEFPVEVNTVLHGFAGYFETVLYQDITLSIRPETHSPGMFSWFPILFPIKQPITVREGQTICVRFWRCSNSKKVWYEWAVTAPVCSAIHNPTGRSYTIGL
PRMT5-MEP50, sequence (Q9BQA1 whole entry partner): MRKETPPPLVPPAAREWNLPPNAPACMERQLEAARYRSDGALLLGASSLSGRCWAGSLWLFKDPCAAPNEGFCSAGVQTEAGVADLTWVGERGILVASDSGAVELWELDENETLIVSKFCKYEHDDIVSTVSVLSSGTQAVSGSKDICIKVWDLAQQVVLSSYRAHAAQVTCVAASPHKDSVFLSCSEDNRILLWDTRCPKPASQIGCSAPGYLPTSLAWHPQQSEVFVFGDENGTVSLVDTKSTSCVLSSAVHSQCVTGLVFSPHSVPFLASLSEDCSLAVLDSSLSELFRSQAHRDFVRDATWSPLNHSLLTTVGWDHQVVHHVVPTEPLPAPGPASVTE
METTL1/WDR4, sequence (Q9UBP6 whole entry, species assumed): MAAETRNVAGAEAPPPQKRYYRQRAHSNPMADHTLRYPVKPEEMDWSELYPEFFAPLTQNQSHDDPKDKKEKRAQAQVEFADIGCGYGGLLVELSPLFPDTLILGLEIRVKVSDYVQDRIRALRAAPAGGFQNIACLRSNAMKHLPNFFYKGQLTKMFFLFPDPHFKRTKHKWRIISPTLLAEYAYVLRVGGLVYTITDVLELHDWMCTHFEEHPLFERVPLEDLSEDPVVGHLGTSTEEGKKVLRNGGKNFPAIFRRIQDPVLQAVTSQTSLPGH
METTL1/WDR4, sequence (P57081 whole entry partner, species assumed): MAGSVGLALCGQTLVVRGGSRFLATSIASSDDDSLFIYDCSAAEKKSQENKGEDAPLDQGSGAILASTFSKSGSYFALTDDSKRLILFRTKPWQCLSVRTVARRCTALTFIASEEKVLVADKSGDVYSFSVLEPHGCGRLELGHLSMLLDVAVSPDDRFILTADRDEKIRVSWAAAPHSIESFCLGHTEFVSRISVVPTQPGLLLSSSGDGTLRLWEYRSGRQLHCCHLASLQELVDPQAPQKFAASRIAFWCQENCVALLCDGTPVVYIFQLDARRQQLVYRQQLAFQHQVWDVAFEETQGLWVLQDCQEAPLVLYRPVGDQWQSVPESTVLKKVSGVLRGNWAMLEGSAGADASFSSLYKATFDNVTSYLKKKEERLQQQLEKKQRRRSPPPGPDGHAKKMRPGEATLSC
METTL3/METTL14, sequence (Q86U44 whole entry, species assumed): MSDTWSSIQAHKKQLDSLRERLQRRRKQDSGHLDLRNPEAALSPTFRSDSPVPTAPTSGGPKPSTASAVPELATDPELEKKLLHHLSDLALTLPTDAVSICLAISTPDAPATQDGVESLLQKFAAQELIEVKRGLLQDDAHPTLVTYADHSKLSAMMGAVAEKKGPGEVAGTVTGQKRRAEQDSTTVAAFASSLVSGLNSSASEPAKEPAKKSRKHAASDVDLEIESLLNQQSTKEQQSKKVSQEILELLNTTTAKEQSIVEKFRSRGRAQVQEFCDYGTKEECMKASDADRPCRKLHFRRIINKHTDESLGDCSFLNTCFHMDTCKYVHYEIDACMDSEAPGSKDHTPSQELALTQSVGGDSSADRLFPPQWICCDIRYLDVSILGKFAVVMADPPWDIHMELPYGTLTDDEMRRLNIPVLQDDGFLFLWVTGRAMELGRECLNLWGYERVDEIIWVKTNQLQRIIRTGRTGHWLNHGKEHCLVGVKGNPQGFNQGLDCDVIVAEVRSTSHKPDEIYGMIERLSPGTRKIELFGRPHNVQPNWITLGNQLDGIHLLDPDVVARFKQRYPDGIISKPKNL
METTL3/METTL14, sequence (Q9HCE5 whole entry partner, species assumed): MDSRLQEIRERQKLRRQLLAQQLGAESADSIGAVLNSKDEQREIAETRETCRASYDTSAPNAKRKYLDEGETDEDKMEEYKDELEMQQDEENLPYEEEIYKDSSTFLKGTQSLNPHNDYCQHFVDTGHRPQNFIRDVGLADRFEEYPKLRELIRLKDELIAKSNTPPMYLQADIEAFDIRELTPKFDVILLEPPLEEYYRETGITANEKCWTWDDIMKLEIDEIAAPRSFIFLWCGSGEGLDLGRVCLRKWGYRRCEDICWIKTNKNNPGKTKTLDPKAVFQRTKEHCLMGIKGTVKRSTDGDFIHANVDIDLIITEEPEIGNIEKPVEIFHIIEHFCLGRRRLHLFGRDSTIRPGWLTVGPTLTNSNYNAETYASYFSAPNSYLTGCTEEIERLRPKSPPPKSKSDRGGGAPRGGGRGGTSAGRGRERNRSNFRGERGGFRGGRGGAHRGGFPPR

Compound: Cc1cc(N)c2ccc(OCc3cncc(-n4cc(Cl)c5c(N)ncnc54)c3)cc2n1 [Compound I-53]
- IC50 (METTL3/METTL14): 10 to 100 nM
- IC50 (PRMT5-MEP50): > 1000 nM
- IC50 (METTL16): > 1000 nM

Compound: CNc1ccc2ccc(OCc3cncc(-n4ccc5c(N)nc(N)nc54)c3)cc2n1 [Compound I-56]
- IC50 (METTL3/METTL14): 100 to 1000 nM
- IC50 (PRMT5-MEP50): > 1000 nM
- IC50 (METTL16): > 1000 nM

Compound: CNc1ccc2ccc(OCc3cncc(-n4cc(C5CCCC5)c5cncnc54)c3)cc2n1 [Compound I-57]
- IC50 (METTL3/METTL14): 100 to 1000 nM
- IC50 (PRMT5-MEP50): > 1000 nM
- IC50 (METTL16): > 1000 nM

Compound: CNc1ccc2ccc(OCc3cc(OC)cc(-n4cc(Cl)c5c(N)ncnc54)c3)cc2n1 [Compound I-82]
- IC50 (METTL3/METTL14): 100 to 1000 nM
- IC50 (PRMT5-MEP50): > 1000 nM
- IC50 (METTL16): > 1000 nM

Compound: CNc1ccc2ccc(OCc3cc(-n4cc(Cl)c5c(N)ncnc54)ccc3OC)cc2n1 [Compound I-83]
- IC50 (METTL3/METTL14): > 1000 nM
- IC50 (PRMT5-MEP50): > 1000 nM
- IC50 (METTL16): > 1000 nM

Compound: Nc1ncnc2c1ccn2-c1cncc(COc2ccc3c(=O)cc[nH]c3c2)c1 [Compound I-88]
- IC50 (METTL3/METTL14): > 1000 nM
- IC50 (PRMT5-MEP50): > 1000 nM
- IC50 (METTL1/WDR4): > 1000 nM

Compound: CCc1cc(NCCN(C)C)c2ccc(OCc3cncc(-n4ccc5c(N)ncnc54)n3)cc2n1 [Compound I-89]
- IC50 (METTL3/METTL14): < 10 nM
- IC50 (PRMT5-MEP50): > 1000 nM
- IC50 (METTL1/WDR4): > 1000 nM

Compound: CC(C)c1nc(N)c2ccc(OCc3cncc(-n4ccc5c(N)ncnc54)c3)cc2n1 [Compound I-91]
- IC50 (METTL3/METTL14): 10 to 100 nM
- IC50 (PRMT5-MEP50): > 1000 nM
- IC50 (METTL1/WDR4): > 1000 nM

Compound: CC(C)(C)c1cc(N)c2ccc(OCc3cncc(-n4ccc5c(N)ncnc54)c3)cc2n1 [Compound I-93]
- IC50 (METTL3/METTL14): < 10 nM
- IC50 (PRMT5-MEP50): > 1000 nM
- IC50 (METTL1/WDR4): > 1000 nM

Compound: Nc1ncnc2c1c(C1CCCC1)cn2-c1cncc(COc2ccc3ccc(N4CCC4)nc3c2)c1 [Compound I-94]
- IC50 (METTL3/METTL14): < 10 nM
- IC50 (PRMT5-MEP50): > 1000 nM
- IC50 (METTL1/WDR4): > 1000 nM

Compound: CCCC(=O)c1cn(-c2cncc(COc3ccc4ccc(NC)nc4c3)c2)c2ncnc(N)c12 [Compound I-96]
- IC50 (METTL3/METTL14): 10 to 100 nM
- IC50 (PRMT5-MEP50): > 1000 nM
- IC50 (METTL1/WDR4): > 1000 nM

Compound: Cc1cc(NCCN(C)CCCc2ccccc2)c2ccc(OCc3cncc(-n4ccc5c(N)ncnc54)c3)cc2n1 [Compound I-98]
- IC50 (METTL3/METTL14): 10 to 100 nM
- IC50 (PRMT5-MEP50): > 1000 nM
- IC50 (METTL1/WDR4): > 1000 nM

Compound: CN(Cc1cncc(-n2cc(-c3ccn(C)n3)c3c(N)ncnc32)c1)CC1CC1 [Compound I-100]
- IC50 (METTL3/METTL14): > 1000 nM
- IC50 (PRMT5-MEP50): > 1000 nM
- IC50 (METTL1/WDR4): > 1000 nM

Compound: Nc1ccc2ccc(OCc3cncc(-n4ccc5c(N)ncnc54)c3)cc2n1 [Compound I-240]
- IC50 (METTL3/METTL14): 10 to 100 nM
- IC50 (PRMT5-MEP50): > 1000 nM
- IC50 (METTL1/WDR4): > 1000 nM
